Patent US10292912B2, “Personal care compositions” (Colgate-Palmolive Company, priority 2015, dated 2019)

Assay: Preparation and aging of 3% SnCl2.2H2O solutions with TSPP or TKPP
Type: physicochemical
Conditions: room temperature
Procedure: Solutions are prepared by dissolving TSPP in deionized water (mixing under heat if necessary) and then adding 0.6 g of SnCl2.2H2O to make 20-gram solutions.
A 3% SnCl2.2H2O solution is used as a control.
Solutions are prepared by dissolving TKPP in deionized water (mixing under heat if necessary) and then adding 0.6 g SnCl2.2H2O to make 20-g solutions.

Structure (SMILES): O.O.[Cl][Sn][Cl] [3% SnCl2.2H2O solution, SnCl2.2H2O]
- appearance after aging overnight: form a cloudy precipitate that settles
